One assay concerns the target T1, human CB2 receptor (Homo sapiens, UniProt P34972).
T1 construct: Eurofins Discovery (contract assay)
The following applies: cited from earlier work.

The next assay deals with CD-1 mice. Briefly: Formalin test in mice. The following applies: AM251 0.5 mg/kg i.p. or AM630 1 mg/kg i.p., 10 min before Δ^9-THCB 3 mg/kg i.p. The assay is classed as in vivo. As for the experimental part:
Formalin test in mice. Male CD-1 mice 6-8 weeks (Envigo, Italy), were housed under controlled conditions (12 h light/12 h dark cycle; temperature 20-22 C; humidity 55-60%) with chow and tap water available ad libitum. All surgeries and experimental procedures were approved by the Animal Ethics Committee of University of Campania “L. Vanvitelli” (Naples). Animal care was in compliance with Italian (D.L. 116/92) and European Commission (O.J. of E.C. L358/1 18/12/86) regulations on the protection of laboratory animals. All efforts were made to minimize animal suffering and to reduce the number of animals used. All the experiments were performed in a randomized manner by the same operator blind to pharmacological treatments. Mice weighing 28-32 g were used after 1 week-acclimation period and received formalin (1.25% in saline, 30 μL) in the dorsal surface of one side of the hind-paw. Each mouse, randomly assigned to one of the experimental groups (n=5), was placed in a plexiglass cage and allowed to move freely for 15-20 min. A mirror was placed at a 45° angle under the cage to allow full view of the hind-paws. Lifting, favoring, licking, shaking and flinching of the injected paw were recorded as nocifensive behavior.^61 The total time of the nociceptive response was measured every 5 min for 60 minutes and expressed in min (mean±SEM). Mice received vehicle (0.5% DMSO in saline) or different doses of Δ^9-THCB (2, 3 and 5 mg/kg, i.p.) 20 min before formalin injection alone or in combination with AM251 (0.5 mg/kg, i.p.) or AM630 (1 mg/kg, i.p.). The antagonists were administered 10 min before drugs injection.
Statistics for in vivo experiments. Data are represented as means±standard error of the mean (S.E.M). Statistical analysis of the data was performed by analysis of variance two-way ANOVA followed by Bonferroni post hoc or Dunnett's multiple comparison test. All statistical analyses were performed by using GraphPAD software (San Diego, California). Differences were considered significant at p<0.05.

Another assay deals with T2, human CB1 receptor (Homo sapiens, UniProt P21554).
T2 construct: Eurofins Discovery (contract assay)
T2 sequence (P21554 whole entry): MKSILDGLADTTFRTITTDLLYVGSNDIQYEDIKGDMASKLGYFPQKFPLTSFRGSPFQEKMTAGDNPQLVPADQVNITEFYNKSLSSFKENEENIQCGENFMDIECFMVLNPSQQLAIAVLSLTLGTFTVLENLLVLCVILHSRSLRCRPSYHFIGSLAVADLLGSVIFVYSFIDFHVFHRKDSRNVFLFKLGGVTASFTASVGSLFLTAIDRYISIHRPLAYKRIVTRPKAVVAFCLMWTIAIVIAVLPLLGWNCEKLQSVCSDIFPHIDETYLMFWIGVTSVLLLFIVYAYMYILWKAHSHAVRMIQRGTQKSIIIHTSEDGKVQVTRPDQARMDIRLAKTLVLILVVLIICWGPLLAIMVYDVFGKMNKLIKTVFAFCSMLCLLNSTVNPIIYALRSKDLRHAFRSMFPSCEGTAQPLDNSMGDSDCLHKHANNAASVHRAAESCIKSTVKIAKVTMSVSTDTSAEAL
The following applies: literature values used for comparison; read-out: Ki against CB1 receptor reported in the literature; cited from earlier work.

This is an account of results in patent publication US12606508B2, “Cannabis extracts and uses thereof” (priority 2020, dated 2026).

T1 sequence (P34972 whole entry): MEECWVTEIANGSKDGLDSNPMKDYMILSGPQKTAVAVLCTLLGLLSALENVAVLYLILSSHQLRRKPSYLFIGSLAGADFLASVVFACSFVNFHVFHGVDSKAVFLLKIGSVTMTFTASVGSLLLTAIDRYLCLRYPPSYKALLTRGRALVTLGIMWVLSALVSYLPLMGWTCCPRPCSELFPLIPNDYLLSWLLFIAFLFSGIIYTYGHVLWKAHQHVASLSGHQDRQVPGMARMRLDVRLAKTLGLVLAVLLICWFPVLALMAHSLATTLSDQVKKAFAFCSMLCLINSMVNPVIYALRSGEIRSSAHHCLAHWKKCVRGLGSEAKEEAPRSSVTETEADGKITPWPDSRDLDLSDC

Turning to `C=C(C)[C@@H]1CCC(C)=C[C@H]1c1c(O)cc(CCCCC)cc1O` [CBD, cannabidiol], the “affinity to CB2 receptor (in words, literature)” value at human CB2 receptor is “poor affinity”.

As for `Cc1c(C(=O)NN2CCCCC2)nn(-c2ccc(Cl)cc2Cl)c1-c1ccc(I)cc1` [AM251], the “effect of antagonist pre-treatment on Δ^9-THCB analgesia in formalin test” value in the assay with CD-1 mice is given as “prevented the analgesic effects induced by Δ^9-THCB”.

On to `CCCc1cc(O)c2c(c1)OC(C)(C)[C@@H]1CCC(C)=C[C@@H]21` [Δ^9-THCV, Δ^9-tetrahydrocannabivarin], for which the inhibition constant (Ki) on human CB1 receptor is 0.0754 µM.

In the case of `CC1=CC[C@@H]2[C@@H](C1)c1c(O)cc(C(C)(C)CCCCCCBr)cc1OC2(C)C` [AM11542], on human CB1 receptor, the Ki was 0.00011 µM.

`COc1ccc(C(=O)c2c(C)n(CCN3CCOCC3)c3cc(I)ccc23)cc1` [AM630]: in the assay with CD-1 mice, the “effect of antagonist pre-treatment on Δ^9-THCB analgesia in formalin test” value is “prevented the analgesic effects induced by Δ^9-THCB”.

By Ki is commonly meant a dissociation constant, usually derived from enzyme kinetics or from competition with a known ligand.
